Reference: ChEMBL document CHEMBL6182868, “Structural simplification of quaternary benzophenanthridine alkaloids generating a candidate for the treatment of non-small cell lung cancer” (Eur J Med Chem, 2025)
One block for each compound: values may come before it. The source made the active and inactive calls. The rule behind the calls is not given here.

Legend:
[1] = Inhibition of TrxR (unknown origin) incubated for 2 hrs in presence of NADPH by DTNB assay; design: species or system Homo sapiens
[2] = tested on: HeLa; test: Cytotoxicity against human HeLa cells incubated for 24 to 48 hrs by MTT assay; format: functional, cell-based
[3] = tested on: HepG2; test: Cytotoxicity against human HepG2 cells incubated for 24 to 48 hrs by MTT assay; format: functional, cell-based
[4] = tested on: A549; test: Cytotoxicity against human A549 cells incubated for 24 to 48 hrs by MTT assay; format: functional, cell-based
[5] = species on record: Homo sapiens; test: Inhibition of TrxR (unknown origin) assessed as remaining activity at 50 uM incubated for 2 hrs in presence of NADPH by DTNB assay relative to control
[6] = species on record: Homo sapiens; test: Inhibition of TrxR U498C mutant (unknown origin) incubated for 2 hrs in presence of NADPH by DTNB assay
[7] = GSH reactivity in TE buffer assessed as remaining concentration of compound incubated 1 to 4 hrs at 37 degreeC by HPLC analysis; format: physicochemical; settings: TE buffer with GSH, time 1-4 hrs, read-out: Stability
[8] = Cys reactivity in TE buffer assessed as remaining concentration of compound incubated 1 to 4 hrs at 37 degreeC by HPLC analysis; format: physicochemical; settings: TE buffer with cysteine, time 1-4 hrs, read-out: Activity
[9] = tested on: A549; test: Induction of ROS accumulation in human A549 cells assessed as increase in fluorescence intensity incubated for 6 hrs by DCFH-DA/DHE staining based analysis; format: functional, cell-based; settings: dose 1-5 µM
[10] = tested on: A549; test: Induction of oxidative stress in human A549 cells assessed as increase in GSSG levels at 1 to 5 uM incubated for 24 hrs by microplate reader analysis; format: functional, cell-based; settings: dose 1-5 µM
[11] = tested on: A549; test: Induction of oxidative stress in human A549 cells assessed as decrease in GSH/GSSG ratio at 1 to 5 uM incubated for 24 hrs by microplate reader analysis; format: functional, cell-based; settings: dose 1-5 µM
[12] = tested on: A549; test: Induction of oxidative stress in human A549 cells assessed as decrease in intracellular total thiol levels at 5 uM incubated for 24 hrs by DTNB titration based microplate reader analysis relative to control; format: functional; design: scale not given: the % may be the effect or the level left
[13] = tested on: A549; test: Induction of apoptosis in human A549 cells assessed as increase in blue fluorescence at 1 to 5 uM incubated for 24 hrs by Hoechst 33342 staining based fluorescence microscopic analysis; format: functional, cell-based; settings: dose 1-5 µM
[14] = tested on: A549; test: Induction of apoptosis in human A549 cells assessed as increase in caspase 3 activation incubated for 24 hrs by colorimetric assay; format: functional, cell-based; settings: dose 1-5 µM
[15] = tested on: A549; test: Induction of apoptosis in human A549 cells assessed as apoptotic cell count incubated for 6 hrs by annexin V-FITC and PI staining based flow cytometric analysis; format: functional; settings: dose 1-5 µM
[16] = tested on: A549; test: Induction of apoptosis in human A549 cells assessed as decrease in Bcl-2 protein expression at 2 to 5 uM incubated for 24 hrs by Western blot analysis; format: functional, cell-based; settings: dose 2-5 µM
[17] = tested on: A549; test: Induction of apoptosis in human A549 cells assessed as increase in Bax protein expression at 2 to 5 uM incubated for 24 hrs by Western blot analysis; format: functional, cell-based; settings: dose 2-5 µM
[18] = Inhibition of TrxR in human A549 cells incubated for 24 hrs by endpoint insulin reduction assay; format: cell-based
[19] = tested on: A549; test: Inhibition of TrxR in human A549 cells assessed as decrease in green fluorescence intensity incubated for 24 hrs by TRFS-green staining based fluorescent microscopic analysis; format: cell-based; settings: dose 1-5 µM
[20] = tested on: A549; test: Induction of apoptosis in human A549 cells assessed as conversion of caspase 3 to cleaved caspase 3 at 2 to 5 uM incubated for 24 hrs by Western blot analysis; format: functional, cell-based; settings: dose 2-5 µM
[21] = tested on: A549; test: Induction of oxidative stress in human A549 cells assessed as activation of ERK pathway by measuring change in protein level incubated for 24 hrs; format: functional, cell-based
[22] = tested on: A549; test: Inhibition of colony formation in human A549 cells assessed as decrease in number of colonies incubated for 1 day in 5% CO2 at 37 degC followed by replacement with fresh culture medium for every 2 days and measured after 10 days by crystal violet staining based analysis; format: functional, cell-based; settings: dose 0.25-0.5 µM
[23] = Cytotoxicity against human LO2 cells assessed as cell viability at 1 to 20 uM incubated for 24 hrs by MTT assay; format: toxicity, cell-based, L02
[24] = tested on: A549; test: Antitumor activity against human A549 cells xenografted in male BALB/c nude mouse assessed as tumor growth inhibition at 3 to 6 mg/kg, ip administrated for every 3 days and measured after 21 days relative to control; format: functional; settings: dose 3-6 mg/kg, time 21 day
[25] = tested on: A549; test: Antitumor activity against ip dosed human A549 cells xenografted in male BALB/c nude mouse assessed as tumor size administered and measured every 3 days for 21 days; format: functional, organism-based; settings: dose 3-6 mg/kg, time 21.0 day
[26] = tested on: A549; test: Antitumor activity against ip dosed human A549 cells xenografted in male BALB/c nude mouse assessed as tumor weight administered and measured every 3 days for 21 days; format: functional, organism-based; settings: dose 3-6 mg/kg, time 21.0 day
[27] = Toxicity in male BALB/c nude mouse xenografted with human A549 cells assessed as effect on body weight 3 to 6 mg/kg, ip administered and measured every 3 days for 21 days; format: organism-based; settings: in vivo, 504 h, dose 3-6 mg/kg, time 21 day
[28] = Half life in Sprague-Dawley rat at 10 mg/kg, po measured up to 24 hrs by LC-MS/MS analysis; format: ADME, organism-based; settings: in vivo
[29] = Tmax in Sprague-Dawley rat at 10 mg/kg, po measured up to 24 hrs by LC-MS/MS analysis; format: ADME, organism-based; settings: in vivo
[30] = AUC (0 to 24 hrs) in Sprague-Dawley rat at 10 mg/kg, po measured up to 24 hrs by LC-MS/MS analysis; format: ADME, organism-based; settings: in vivo
[31] = Toxicity in male BALB/c nude mouse xenografted with human A549 cells assessed as effect on heart at 3 to 6 mg/kg, ip administered for 21 days; format: organism-based; settings: in vivo, 504 h, dose 3-6 mg/kg, time 21 day
[32] = Toxicity in male BALB/c nude mouse xenografted with human A549 cells assessed as effect on liver at 3 to 6 mg/kg, ip administered for 21 days; format: organism-based; settings: in vivo, 504 h, dose 3-6 mg/kg, time 21 day
[33] = Toxicity in male BALB/c nude mouse xenografted with human A549 cells assessed as effect on lung at 3 to 6 mg/kg, ip administered for 21 days; format: organism-based; settings: in vivo, 504 h, dose 3-6 mg/kg, time 21 day
[34] = Toxicity in male BALB/c nude mouse xenografted with human A549 cells assessed as effect on kidney at 3 to 6 mg/kg, ip administered for 21 days; format: organism-based; settings: in vivo, 504 h, dose 3-6 mg/kg, time 21 day
[35] = Toxicity in male BALB/c nude mouse xenografted with human A549 cells assessed as effect on spleen at 3 to 6 mg/kg, ip administered for 21 days; format: organism-based; settings: in vivo, 504 h, dose 3-6 mg/kg, time 21 day
[36] = tested on: A549; test: Cytotoxicity against human A549 cells assessed as cell viability at 1 to 20 uM cotreated with BSO incubated for 24 hrs by MTT assay; format: functional, cell-based; settings: dose 1-20 µM
[37] = tested on: A549; test: Cytotoxicity against human A549 cells assessed as cell viability at 1 to 20 uM cotreated with NAC incubated for 24 hrs by MTT assay; format: functional, cell-based; settings: dose 1-20 µM
[38] = tested on: HeLa; test: Cytotoxicity against human HeLa cells harboring shNT-negative control assessed as cell viability at 1 to 5 uM incubated for 48 hrs by MTT assay; format: functional, cell-based; settings: dose 1-5 µM
[39] = tested on: HeLa; test: Cytotoxicity against human HeLa cells harboring shTrxR1 assessed as cell viability at 1 to 5 uM incubated for 48 hrs by MTT assay; format: functional, cell-based; settings: dose 1-5 µM
[40] = tested on: A549; test: Induction of apoptosis in human A549 cells assessed as small and condensed nuclei at 1 to 5 uM incubated for 24 hrs by Hoechst 33342 staining based fluorescence microscopic analysis; format: functional, cell-based; settings: dose 1-5 µM

IC50 [1]: > 50 µM
SMILES: COc1cc(OC)c2c(c1)ncc1ccccc12
IC50 [2]: > 50 µM | IC50 [3]: > 50 µM | IC50 [4]: > 50 µM

IC50 [1]: > 50 µM
SMILES: C[n+]1cc2ccccc2c2ccccc21
IC50 [2]: 28 µM | IC50 [3]: 32.3 µM | IC50 [4]: 35.8 µM

SMILES: COc1ccc2c(c[n+](C)c3c4cc5c(cc4ccc23)OCO5)c1OC [CHELERYTHRINE CHLORIDE]
IC50 [1]: 14.9 µM | IC50 [2]: 9.6 µM | IC50 [3]: 8.3 µM | IC50 [4]: 8 µM

IC50 [1]: > 50 µM
SMILES: Cc1ccc2c(c1)c1ccccc1c[n+]2C
IC50 [2]: 12.3 µM | IC50 [3]: 15 µM | IC50 [4]: 18.5 µM

IC50 [1]: > 50 µM
SMILES: COc1cc2c(c(OC)c1OC)c1ccccc1c[n+]2C
IC50 [2]: 22.5 µM | IC50 [3]: 21.9 µM | IC50 [4]: 16.9 µM

Activity [5]: 97%
SMILES: CN1Cc2ccccc2-c2ccc3ccccc3c21
IC50 [2]: > 50 µM | IC50 [3]: > 50 µM | IC50 [4]: > 50 µM

IC50 [1]: > 50 µM
SMILES: COc1ccc2c(c1)c1ccccc1c[n+]2C
IC50 [2]: 19.5 µM | IC50 [3]: 19.5 µM | IC50 [4]: 17.6 µM

IC50 [1]: > 50 µM
SMILES: C[n+]1cc2ccccc2c2cc(F)ccc21
IC50 [2]: 31.4 µM | IC50 [3]: 34.7 µM | IC50 [4]: > 50 µM

IC50 [1]: > 50 µM
SMILES: Fc1ccc2ncc3ccccc3c2c1
IC50 [2]: > 50 µM | IC50 [3]: > 50 µM | IC50 [4]: > 50 µM

Activity [5]: 93%
SMILES: c1ccc2c(c1)cnc1c3ccccc3ccc21
IC50 [2]: > 50 µM | IC50 [3]: > 50 µM | IC50 [4]: > 50 µM

IC50 [1]: > 50 µM
SMILES: COc1ccc2ncc3ccccc3c2c1
IC50 [2]: > 50 µM | IC50 [3]: > 50 µM | IC50 [4]: > 50 µM

IC50 [1]: 23 µM
SMILES: C[n+]1cc2c3c(ccc2c2ccc4cc5c(cc4c21)OCO5)OCO3 [SANGUINARIUM CHLORIDE]
IC50 [2]: 2.4 µM | IC50 [3]: 2.6 µM | IC50 [4]: 6.9 µM

IC50 [1]: 10.2 µM | inhibition [6]: Active; Minimal Inhibition Was Observed | remaining at 50 µM [7]: 94% | remaining at 50 µM [8]: 102% | IC50 [18]: 3.94 µM | half-life [28]: 2.58 h | Tmax [29]: 2 h | AUC [30]: 1060 ng·h/mL
SMILES: COc1cc(OC)c2c3ccccc3c[n+](C)c2c1.[I-]
IC50 [2]: 3.4 µM | IC50 [3]: 5 µM | IC50 [4]: 2.1 µM | Activity [9]: Dose-dependent-effect | Activity [10]: Active | Activity [11]: inactive | Activity [12]: ~50% | Activity [13]: Active | Activity [14]: Dose-dependent-effect | Activity [15]: Dose-dependent-effect | Activity [16]: Dose-dependent-effect | Activity [17]: Dose-dependent-effect | inhibition [19]: Dose-dependent-effect | Activity [20]: Dose-dependent-effect | Activity [21]: Active | inhibition [22]: Dose-dependent-effect | IC50 at 24 h [23]: > 20 µM | TGI [24]: 65.49% | Activity [25]: Dose-dependent-effect | Activity [26]: Dose-dependent-effect | Activity [27]: Non-toxic | Activity [31]: Non-toxic | Activity [32]: Non-toxic | Activity [33]: Non-toxic | Activity [34]: Non-toxic | Activity [35]: Non-toxic | Activity [36]: Active | Activity [37]: inactive | Activity [38]: Active | Activity [39]: Active; Compound Exhibited Increased Sensitivity Compared To Hela-Shnt Cells (Negative Control) | Activity [40]: Active

Activity [5]: 64%
SMILES: C[n+]1cc2ccccc2c2ccc3ccccc3c21
IC50 [2]: 5.2 µM | IC50 [3]: 5.4 µM | IC50 [4]: 7.3 µM

IC50 [1]: 38.2 µM | IC50 [18]: 12.2 µM
SMILES: COc1cc2c[n+](C)c3c4cc5c(cc4ccc3c2cc1OC)OCO5 [NITIDINE CHLORIDE]
IC50 [2]: 1.7 µM | IC50 [3]: 1.8 µM | IC50 [4]: 4 µM

IC50 [1]: > 50 µM
SMILES: c1ccc2c(c1)cnc1ccccc12 [PHENANTHRIDINE]
IC50 [2]: > 50 µM | IC50 [3]: > 50 µM | IC50 [4]: > 50 µM

IC50 [1]: > 50 µM
SMILES: COc1cc2ncc3ccccc3c2c(OC)c1OC
IC50 [2]: > 50 µM | IC50 [3]: > 50 µM | IC50 [4]: > 50 µM

IC50 [1]: > 50 µM
SMILES: Cc1ccc2ncc3ccccc3c2c1
IC50 [2]: > 50 µM | IC50 [3]: > 50 µM | IC50 [4]: > 50 µM
